The source of these data is patent EP1420018A1, “Pyrido[1,2-a]benzimidazole derivatives useful in treating central nervous system disorders” (Ortho-McNeil Pharmaceutical, Inc., priority 1996, dated 1998).

Like-named read-outs stand apart in the source and are kept apart here.

For assay [1], the system named is metrazol-induced convulsions. The experiment in a line: Suppression of Metrazol-Induced Convulsions in Adult Male Mice. The note with it: for ED50: Mus musculus, ip. In kind it is in vivo.
The test system of assay [2] is Anxiety in the Adult Male Rat. The experiment in a line: Suppression of Anxiety in the Adult Male Rat (rat conflict test). In kind it is in vivo, rats. The note with it: for minimal effective dose: Rattus norvegicus. The method, boiled down: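 Male rats, 48 h water- and 24 h food-deprived, trained with 200 unpunished licks, tested at expected peak drug activity. Every 20th lick punished by 0.2-s shock over a 3-min session; increase in median shocks versus concurrent vehicle assessed by one-tailed Mann-Whitney test (p<0.05), validated with a positive-control anxiolytic.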

For assay [3], the system named is metrazol-induced convulsions. The experiment in a line: Suppression of Metrazol-Induced Convulsions in Adult Male Mice. Type of assay: in vivo. The note with it: for ED50: Mus musculus, po.
Assay [4] concerns the target benzodiazepine site of the GABA-A receptor. Nature of the assay: Benzodiazepine Receptor Binding Assay (inhibition of 3H-flunitrazepam binding). The settings on record: read-out: GABAA Receptor Binding IC50.
[5] abbreviates: po, rat, po, read-out: Rat Conflict (MED, mg/kg) po.
Where [6] appears, read: ip, rat, ip, read-out: Rat Conflict (MED, mg/kg) ip.
[7] abbreviates: block of clonic convulsions, male CD1 mice, >30 = active dose not determined.
[8] abbreviates: po, minimum effective dose, increase in shocks tolerated, >10 = active dose not determined, read-out: Rat Conflict (MED, mg/kg) po.
Setting [9] is: inhibition of 3H-flunitrazepam (ca. 3 nM) binding to membranes, 25°C, over 10,000 = not active.

Regarding `CCOCN1C2=C(C(=O)Nc3ccc(S(C)(=O)=O)s3)C(=O)CCN2c2ccc(F)cc21` [Compound 120], the 50% effective dose (ED50) was more than 1 mg/kg in assay [1] (mouse) and approximately 3 mg/kg in assay [3] (mouse). For the same compound, the minimal effective dose in assay [2] (setting [5]) is more than 10 mg/kg. Moreover, the IC50 in assay [4] amounted to 35.1 nM.
The matching figures for `COCCN1C2=C(C(=O)Nc3ccccc3F)C(=O)CCN2c2c(O)cccc21` [Compound 108]: more than 1 mg/kg, not below 30 mg/kg, more than 10 mg/kg and 10.4 nM.
Regarding `CN(CCN1C2=C(C(=O)Nc3c(F)cccc3F)C(=O)CCN2c2ccc(F)cc21)Cc1ccc(F)cc1` [Compound 65], the ED50 was more than 10 mg/kg in assay [1] (mouse) and more than 30 mg/kg in assay [3] (mouse). For the same compound, the minimal effective dose in assay [2] (setting [6]) was more than 10 mg/kg. Also, the IC50 in assay [4] is 11 nM.
Regarding `COCCN1C2=C(C(=O)Nc3ccc(Cl)cc3)C(=O)CCN2c2ccccc21` [Compound 156], the figures for the ED50 in assay [1] (mouse) and in assay [3] (mouse) were less than 1 mg/kg and approximately 2 mg/kg, respectively. Also, in assay [2] (setting [5]), the minimal effective dose is 1 mg/kg. In assay [4], the IC50 came to 16 nM.
For `CCOCN1C2=C(C(=O)Nc3cccs3)C(=O)CCN2c2ccccc21` [Compound 105], the values for the ED50 in assay [1] (mouse) and in assay [3] (mouse) were less than 1 mg/kg and less than 3 mg/kg, respectively. For the same compound, in assay [2] (setting [5]), the minimal effective dose came to 10 mg/kg. In assay [4], the IC50 was found to be 0.84 nM.
On to `O=C1CCN2C(=C1C(=O)Nc1ccccc1F)N(CC1CCCO1)c1cc(F)ccc12` (stereo not shown) [Compound 175], for which the ED50 is less than 1 mg/kg in assay [1] (mouse) and 2 mg/kg in assay [3] (mouse). Further, the minimal effective dose in assay [2] (setting [5]) is more than 10 mg/kg. Further, the IC50 in assay [4] was found to be 1.5 nM.
Regarding `COCCN1C2=C(C(=O)Nc3ccccc3F)C(=O)CCN2c2ccc(F)cc21` [Compound 163], the values for the ED50 in assay [1] (mouse) and in assay [3] (mouse) were 0.01 mg/kg and 0.2 mg/kg, respectively. Also, the minimal effective dose in assay [2] (setting [6]) was less than 10 mg/kg; in assay [2] (setting [5]) it was 0.1 mg/kg. Further, in assay [4], the IC50 amounted to 0.61 nM.
For `N#CCCNC(=O)CN1C2=C(C(=O)Nc3ccccc3F)C(=O)CCN2c2ccc(F)cc21` [Compound 36, 7-Fluoro-1,2-dihydro-5-[N-(2-cyanoethyl)-2-acetamido]-3-oxo-N-(2-fluorophenyl)pyrido[1,2-a]benzimidazole-4-carboxamide], the ED50 in assay [1] (setting [7]) is more than 1 mg/kg; in assay [3] (setting [7]), more than 30 mg/kg. Besides, the minimal effective dose in assay [2] (setting [8]) is more than 10 mg/kg. Also, the IC50 in assay [4] (setting [9]) is 3.3 nM.
Consider `CN(CCN1C2=C(C(=O)Nc3ccccc3F)C(=O)CCN2c2ccc(F)cc21)S(=O)(=O)C(F)(F)F` [Compound 37], for which the results for the ED50 in assay [1] (setting [7]) and in assay [3] (setting [7]) were more than 1 mg/kg and more than 30 mg/kg, respectively. Moreover, in assay [2] (setting [8]), the minimal effective dose is more than 10 mg/kg. Further, in assay [4] (setting [9]), the IC50 turned out to be 18.3 nM.
For the compound `CCOCCN1C2=C(C(=O)Nc3cccs3)C(=O)CCN2c2ccc(F)cc21` [Compound 126], the ED50 is less than 1 mg/kg in assay [1] (mouse) and approximately 0.6 mg/kg in assay [3] (mouse). Moreover, the minimal effective dose in assay [2] (setting [5]) stood at 0.1 mg/kg. The IC50 in assay [4] is 0.73 nM.
In the case of `COCCN(CCN1C2=C(C(=O)Nc3ccccc3F)C(=O)CCN2c2ccc(F)cc21)Cc1ccccc1` [Compound 56], the ED50 is 1 mg/kg in assay [1] (mouse) and approximately 10 mg/kg in assay [3] (mouse). Besides, the minimal effective dose in assay [2] (setting [6]) is more than 10 mg/kg. For the same compound, the IC50 in assay [4] was 7.99 nM.
Consider `COCCN1C2=C(C(=O)Nc3ccccc3F)C(=O)CCN2c2ccc(Cl)cc21` [Compound 147], for which the ED50 in assay [1] (mouse) was less than 1 mg/kg; in assay [3] (mouse), approximately 5 mg/kg. In assay [2] (setting [5]), the minimal effective dose was more than 10 mg/kg. For the same compound, in assay [4], the IC50 was determined as 2.49 nM.
In the case of `COCCN1C2=C(C(=O)Nc3nccs3)C(=O)CCN2c2ccc(F)cc21` [Compound 155], in assay [1] (mouse), the “Mouse Metrazol (ED50, mg/kg) ip” value is recorded as less than 1 mg/kg. The “Rat Conflict (MED, mg/kg) po” value in assay [2] (rat, po) is given as 3 mg/kg. In assay [3] (mouse), the “Mouse Metrazol (ED50, mg/kg) po” value is recorded as “ca. 1.5 mg/kg”. Moreover, in assay [4], the IC50 was 6.13 nM.
Regarding `COCCN1C2=C(C(=O)Nc3ccc(OC)cc3)C(=O)CCN2c2ccc(F)cc21` [Compound 106], the ED50 in assay [1] (mouse) was less than 1 mg/kg; in assay [3] (mouse), 0.3 mg/kg. Further, in assay [2] (setting [5]), the minimal effective dose was determined as 1 mg/kg. Also, the IC50 in assay [4] amounted to 4.47 nM.
As to `CCN(CC)CCN1C2=C(C(=O)Nc3c(F)cccc3F)C(=O)CCN2c2ccc(F)cc21` [Compound 70], the ED50 in assay [1] (mouse) is more than 10 mg/kg; in assay [3] (mouse), more than 30 mg/kg. For the same compound, the minimal effective dose in assay [2] (setting [6]) was more than 10 mg/kg. For the same compound, the IC50 in assay [4] stood at 267 nM.
Turning to `CN(C)c1ccc(CCN2C3=C(C(=O)Nc4ccccc4F)C(=O)CCN3c3ccc(F)cc32)cc1` [Compound 84], the ED50 in assay [1] (mouse) was 1 mg/kg; in assay [3] (mouse), less than 30 mg/kg. Also, the minimal effective dose in assay [2] (setting [6]) is more than 10 mg/kg. Further, the IC50 in assay [4] was 8.52 nM.
In assay [1] (mouse), `COCCN1C2=C(C(=O)Nc3nccs3)C(=O)CCN2c2ccc(F)cc21` [Compound 140] showed a 50% effective dose (ED50) of less than 1 mg/kg. The “Rat Conflict (MED, mg/kg) po” value in assay [2] (rat, po) is more than 10 mg/kg. Besides, in assay [3] (mouse), the “Mouse Metrazol (ED50, mg/kg) po” value is on record as 0.3 mg/kg. In addition, the IC50 in assay [4] came out at 3.97 nM.
Consider `CN(C)CCN1C2=C(C(=O)Nc3ccc(F)cc3F)C(=O)CCN2c2ccc(F)cc21` [Compound 55], for which the ED50 in assay [1] (mouse) and in assay [3] (mouse) was 1 mg/kg each time. The minimal effective dose is less than 10 mg/kg in assay [2] (setting [6]) and 3 mg/kg in assay [2] (setting [5]). The IC50 in assay [4] was 31.8 nM.
For the compound `CC(C)OCCN1C2=C(C(=O)Nc3ccccc3F)C(=O)CCN2c2ccc(F)cc21` [Compound 150], the ED50 in assay [1] (mouse) is less than 1 mg/kg; in assay [3] (mouse) it was 1 mg/kg. In assay [2] (setting [5]), the minimal effective dose was found to be 10 mg/kg. For the same compound, in assay [4], the IC50 turned out to be 0.32 nM.
Turning to `CC(C)N(CCN1C2=C(C(=O)Nc3c(F)cccc3F)C(=O)CCN2c2ccc(F)cc21)C(C)C` [Compound 68], the ED50 in assay [1] (mouse) was more than 10 mg/kg; in assay [3] (mouse), more than 30 mg/kg. The minimal effective dose in assay [2] (setting [6]) is 10 mg/kg. Also, the IC50 in assay [4] came to 44.6 nM.
In the case of `CN(C)CCN1C2=C(C(=O)Nc3ccccc3F)C(=O)CCN2c2ccc(Cl)cc21` [Compound 43], the 50% effective dose (ED50) in assay [1] (setting [7]) was 1 to 10 mg/kg; in assay [3] (setting [7]) it was less than 30 mg/kg. For the same compound, the minimal effective dose in assay [2] (ip, minimum effective dose, increase in shocks tolerated, >10 = active dose not determined, read-out: Rat Conflict (MED, mg/kg) ip) was 10 mg/kg; in assay [2] (setting [8]) it was more than 10 mg/kg. The IC50 in assay [4] (setting [9]) was found to be 26.9 nM.
Consider `O=C1CCN2C(=C1C(=O)Nc1ccccc1F)N(CCOCc1ccccc1)c1cc(F)ccc12` [Compound 171, 7-Fluoro-1,2-dihydro-5-[2-(benzyloxy)ethyl]-3-oxo-N-(2-fluorophenyl)pyrido[1,2-a]benzimidazole-4-carboxamide], for which the ED50 in assay [1] (mouse) is 0.1 mg/kg; in assay [3] (mouse), 1 mg/kg. Besides, the minimal effective dose in assay [2] (setting [6]) and in assay [2] (setting [5]) was 10 mg/kg throughout. In assay [4], the IC50 came out at 1.5 nM.
On to `NCCN1C2=C(C(=O)Nc3ccccc3F)C(=O)CCN2c2ccc(F)cc21` [Compound 57], for which the ED50 in assay [1] (mouse) came out at 0.3 mg/kg; in assay [3] (mouse) it was 10 mg/kg. Also, the minimal effective dose in assay [2] (setting [6]) was approximately 10 mg/kg; in assay [2] (setting [5]), 10 mg/kg. Besides, the IC50 in assay [4] is 5.13 nM.
In the case of `O=C(CN1C2=C(C(=O)Nc3ccccc3F)C(=O)CCN2c2ccc(F)cc21)Nc1ccccc1F` [Compound 61, 7-Fluoro-1,2-dihydro-5-[N-(2-fluorophenyl)-2-acetamido]-3-oxo-N-(2-fluorophenyl)pyrido[1,2-a]benzimidazole-4-carboxamide], the values for the ED50 in assay [1] (mouse) and in assay [3] (mouse) were less than 1 mg/kg and 30 mg/kg, respectively. In addition, the minimal effective dose in assay [2] (setting [6]) was more than 10 mg/kg. For the same compound, the IC50 in assay [4] was 6.32 nM.
With `COCCOCN1C2=C(C(=O)Nc3ccccc3F)C(=O)CCN2c2ccc(F)cc21` [Compound 159], the results for the ED50 in assay [1] (mouse) and in assay [3] (mouse) were 0.003 mg/kg and 0.1 mg/kg, respectively. For the same compound, the minimal effective dose in assay [2] (setting [6]) was less than 10 mg/kg; in assay [2] (setting [5]), 3 mg/kg. In addition, the IC50 in assay [4] worked out at 0.8 nM.

Usually ED50 stands for the midpoint of the dose-response relation. A high value points to weaker potency. For orientation: IC50 means the concentration that inhibits the measured activity by half.
